This note sets out measurements from patent publication US8911725B2, “Co-targeting of aurora A kinase and LIM kinase 1 for cancer therapy” (University of Central Florida Research Foundation, Inc., priority 2010, dated 2014).

What all share (type): cell-based
Data set [1] has as its system PC3 and RWPE1 cells. Put plainly: Cell viability by MTT assay. As to conditions: MLN8237 0.01 uM, 24, 48 and 72 hr. On the procedure:
(§1) FIG. 8. […] Western blot analysis of nuclear extracts from PC3 cells treated with MLN8237 (0.01 uM). Y-tubulin staining was used as the loading control. […] PC3 and RWPE1 cells were treated with MLN8237 (0.01 uM) MLN8237 for 24, 48, and 72 hr and cell viability was measured by MTT Assay.

Data set [2] deals with PC3 cells. Put plainly: Cell proliferation by MTS assay, MLN8237 with LIMK1 shRNA or control shRNA. As to the method:
10 cm dishes were transiently transfected with 6 ug of LIMK1 shRNA or control shRNA. 24 hrs post transfection, untransfected PC3 cells along with the transfected PC3 cells were seeded in 96 well plates in triplicate (5,000 cells/well). 14 hrs after seeding, media was changed to MLN8237 containing media, at concentrations of 0.001 uM, 0.01 uM, and 0.1 uM. After 24 and 48 hours of inhibitor treatment, cell proliferation was measured using MTS assay. MTS reagent was added to each well and allowed to incubate for 3 hrs at 37° C. before reading absorbances. Absorbances were compared against controls.
For orientation: Formazan colour is commonly taken as a measure of viable cells.

For data set [3], the system named is PC3 cells. Put plainly: Western blot analysis of nuclear extracts for phospho-Histone H3. As to conditions: MLN8237 0.01 uM, nuclear extracts from PC3 cells. On the procedure: as §1
Background: A western blot detects proteins with antibodies after separation by electrophoresis.

The subject of data set [4] is PC3 and RWPE1 cells. Put plainly: Immunofluorescence analysis of cells treated with MLN8237. The settings on record: MLN8237 0.01 uM, 24 hr.
Data set [5] deals with PC3 cells. Put plainly: Immunofluorescence of spindle structure after LIMK1 shRNA transfection, spindle abnormalities counted. The text has this:
FIG. 7 A: PC3 cells were transfected with either LIMK1 or control shRNA. In control shRNA transfected cells, distinct localization of pAurKA (green) at the spindle poles (red) could be noted. […] PC3 cells were transfected with either LIMK1 or control shRNA and spindle abnormalities were quantified by counting 50 cells per treatment.

Data set [6] relates to PC3 cells. Put plainly: Western blot of LIMK1 and pAurKA after LIMK1 shRNA transfection. As to conditions: LIMK1 shRNA versus control shRNA. As to the method:
FIG. 6 PC3 cells were transfected with LIMK1 shRNA or control shRNA and the levels of LIMK1 and pAurKA were detected by western blotting using anti-LIMK1 or anti phospho-AurKA antibodies. GAPDH was used as the loading control. The ratio of pAurKA to GAPDH levels was determined by densitometry (left panel).

Take `COc1cc(Nc2ncc3c(n2)-c2ccc(Cl)cc2C(c2c(F)cccc2OC)=NC3)ccc1C(=O)O` [MLN8237]: in the data set with PC3 and RWPE1 cells [1], the “cell survival (cell viability, MTT)” value is “Decreased Cell Survival”. For the same compound, in the data set with PC3 cells [2] (0.001, 0.01 and 0.1 uM, 24 and 48 hr), the “sensitivity of untransfected PC3 cells to MLN8237 (MTS)” value is listed as “most sensitive to 0.1 uM MLN8237 at 48 hrs”. Moreover, the “levels of phospho-Histone H3 (mitotic arrest)” value in the data set with PC3 cells [3] was “Increased the Levels of phospho-Histone H3”. Further, in the data set with PC3 and RWPE1 cells [4], the “localization of pAurKA and spindle morphology (alpha-tubulin)” value was “mislocalization of pAurKA (green) and improper spindle morphology”; the “localization of pLIMK1 and centrin” value is “diffused staining and mislocalization of pLIMK1 (green) and centrin (red) in the nucleus”.
In the case of “AAGGACAAGAGGCTCAACTTCATCACTGA (listed as DNA, chemistry not given here) [LIMK1 shRNA, interfering RNA (shRNA) targeting LIMK1]”, in the data set with PC3 cells [5] (50 cells counted per treatment), the “number of abnormal spindles” value is recorded as “increased the number of abnormal spindles”. Further, the “spindle structure (alpha-tubulin staining)” value in the data set on PC3 cells [5] (LIMK1 shRNA versus control shRNA) is given as “disorganized spindle structure”. Further, the “number of viable cells compared to control shRNA” value in the data set on PC3 cells [2] (0.001 uM MLN8237, 48 hrs, PC3 cells) stood at 75%; in the data set on PC3 cells [2] (0.1 uM MLN8237, 48 hrs, PC3 cells) it was 83%. In the data set with PC3 cells [2] (PC3 cells, MLN8237 0.001-0.1 uM), the “sensitivity to MLN8237 versus control shRNA transfected cells” value is reported as “more sensitivity to MLN8237”. Also, in the data set with PC3 cells [2] (normalised to untransfected PC3 cells treated with vehicle (DMSO), 24 and 48 hr), the “sensitivity to AurKA inhibitor versus untransfected PC3 cells treated only with AurKA inhibitor” value is listed as “increased the sensitivity of the cells to AurKA inhibitor at all concentrations”. Moreover, the “level of phosphorylated AurKA” value with PC3 cells [6] was “decreased the level of phosphorylated AurkA”.
